{
  "source": "ChEMBL document CHEMBL3085700",
  "about": "(J Med Chem, 2013)",
  "key": {"[1]": {"molecular_target": "T1, Monoacylglycerol lipase ABHD6 (Mus musculus) (UniProt Q8R2Y0)", "T1 sequence (whole entry)": "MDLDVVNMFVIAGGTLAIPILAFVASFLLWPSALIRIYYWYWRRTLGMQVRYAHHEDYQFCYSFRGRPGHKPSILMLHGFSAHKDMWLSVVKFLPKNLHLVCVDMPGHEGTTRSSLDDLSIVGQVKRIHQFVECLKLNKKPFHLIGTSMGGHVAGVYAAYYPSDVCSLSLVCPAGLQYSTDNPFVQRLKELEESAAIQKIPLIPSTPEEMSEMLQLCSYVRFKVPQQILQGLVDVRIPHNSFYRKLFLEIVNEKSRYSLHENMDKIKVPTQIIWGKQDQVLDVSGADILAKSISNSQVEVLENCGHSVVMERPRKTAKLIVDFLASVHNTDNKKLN", "test": "Inhibition of TAMRA-FP-labeled ABHD6 in mouse brain membrane at 10 uM after 1 hr by fluorescent gel scanning assay", "type": "cell membranes"}, "[2]": {"molecular_target": "T2, Fatty-acid amide hydrolase 1 (Homo sapiens) (UniProt O00519)", "T2 sequence (whole entry)": "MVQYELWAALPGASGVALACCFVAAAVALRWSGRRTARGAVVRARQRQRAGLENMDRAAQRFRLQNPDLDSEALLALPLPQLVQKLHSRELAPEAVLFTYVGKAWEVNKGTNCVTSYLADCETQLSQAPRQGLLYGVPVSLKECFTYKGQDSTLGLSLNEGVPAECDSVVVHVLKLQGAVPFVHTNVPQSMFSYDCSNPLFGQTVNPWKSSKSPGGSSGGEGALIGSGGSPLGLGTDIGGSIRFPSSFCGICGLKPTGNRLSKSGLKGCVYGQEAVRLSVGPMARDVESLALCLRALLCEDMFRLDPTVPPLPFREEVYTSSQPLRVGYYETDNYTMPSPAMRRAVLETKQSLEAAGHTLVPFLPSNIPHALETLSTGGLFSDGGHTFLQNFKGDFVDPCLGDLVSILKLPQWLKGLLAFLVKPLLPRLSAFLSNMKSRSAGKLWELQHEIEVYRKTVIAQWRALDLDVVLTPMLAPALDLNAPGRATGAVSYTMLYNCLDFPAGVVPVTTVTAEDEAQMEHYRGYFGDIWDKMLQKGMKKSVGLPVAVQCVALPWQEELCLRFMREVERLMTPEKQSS", "test": "Inhibition of human recombinant FAAH overexpressed in African green monkey COS7 cells using [3H]-anandamide as substrate at 10 to 300 uM preincubated for 10 to 60 mins by liquid scintillation counting analysis", "type": "cell-based", "conditions": "COS-7"}, "[3]": {"molecular_target": "T2, Fatty-acid amide hydrolase 1 (Homo sapiens)", "test": "Reversible inhibition of human recombinant FAAH overexpressed in African green monkey COS7 cells using […] as substrate assessed as recovery of enzyme activity at 20 x IC50 preincubated for 60 mins followed by 500 fold dilution measured after 10 mins by HPLC analysis", "type": "cell-based", "conditions": "COS-7"}, "[4]": {"molecular_target": "T3, Fatty-acid amide hydrolase 1 (Mus musculus) (UniProt O08914)", "T3 sequence (whole entry)": "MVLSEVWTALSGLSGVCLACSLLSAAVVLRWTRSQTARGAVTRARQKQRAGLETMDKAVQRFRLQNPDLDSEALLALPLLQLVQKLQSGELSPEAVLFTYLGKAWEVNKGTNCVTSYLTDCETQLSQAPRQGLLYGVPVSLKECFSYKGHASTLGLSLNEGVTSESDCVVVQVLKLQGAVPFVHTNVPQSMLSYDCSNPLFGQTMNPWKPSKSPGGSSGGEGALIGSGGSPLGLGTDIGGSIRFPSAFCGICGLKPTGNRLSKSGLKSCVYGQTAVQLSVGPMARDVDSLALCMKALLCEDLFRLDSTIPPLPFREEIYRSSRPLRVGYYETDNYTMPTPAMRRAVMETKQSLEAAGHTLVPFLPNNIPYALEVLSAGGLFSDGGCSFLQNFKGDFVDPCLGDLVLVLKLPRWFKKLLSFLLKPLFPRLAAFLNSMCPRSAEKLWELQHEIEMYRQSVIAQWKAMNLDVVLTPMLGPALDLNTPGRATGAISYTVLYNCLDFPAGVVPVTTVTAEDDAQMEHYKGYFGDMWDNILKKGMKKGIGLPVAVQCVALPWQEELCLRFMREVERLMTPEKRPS", "test": "Inhibition of TAMRA-FP-labeled FAAH in mouse brain membrane after 1 hr by fluorescent gel scanning assay", "type": "cell membranes"}, "[5]": {"test": "Selectivity ratio for human recombinant FAAH over ovine COX-1"}, "[6]": {"molecular_target": "T4, Prostaglandin G/H synthase 2 (Homo sapiens) (UniProt P35354)", "T4 sequence (whole entry)": "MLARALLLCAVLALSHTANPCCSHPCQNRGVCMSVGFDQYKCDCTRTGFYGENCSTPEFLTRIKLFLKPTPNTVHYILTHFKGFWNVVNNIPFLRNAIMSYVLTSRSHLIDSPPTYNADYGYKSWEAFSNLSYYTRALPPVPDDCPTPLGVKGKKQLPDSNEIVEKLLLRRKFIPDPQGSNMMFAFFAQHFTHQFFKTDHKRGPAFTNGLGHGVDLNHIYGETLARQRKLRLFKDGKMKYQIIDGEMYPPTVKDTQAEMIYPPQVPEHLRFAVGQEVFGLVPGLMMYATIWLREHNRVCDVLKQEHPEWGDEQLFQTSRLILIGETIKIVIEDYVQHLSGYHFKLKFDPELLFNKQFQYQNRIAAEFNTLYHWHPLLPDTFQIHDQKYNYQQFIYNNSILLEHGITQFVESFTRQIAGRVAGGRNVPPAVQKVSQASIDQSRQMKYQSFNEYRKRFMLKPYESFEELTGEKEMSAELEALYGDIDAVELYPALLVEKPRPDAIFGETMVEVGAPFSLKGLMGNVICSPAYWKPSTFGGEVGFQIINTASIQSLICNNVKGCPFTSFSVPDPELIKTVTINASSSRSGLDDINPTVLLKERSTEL", "test": "Inhibition of human recombinant COX-2 using arachidonic acid as substrate assessed as oxygen consumption at 10 uM measured within 10 to 50 secs relative to control"}, "[7]": {"molecular_target": "T5, Monoglyceride lipase (Mus musculus) (UniProt O35678)", "T5 sequence (whole entry)": "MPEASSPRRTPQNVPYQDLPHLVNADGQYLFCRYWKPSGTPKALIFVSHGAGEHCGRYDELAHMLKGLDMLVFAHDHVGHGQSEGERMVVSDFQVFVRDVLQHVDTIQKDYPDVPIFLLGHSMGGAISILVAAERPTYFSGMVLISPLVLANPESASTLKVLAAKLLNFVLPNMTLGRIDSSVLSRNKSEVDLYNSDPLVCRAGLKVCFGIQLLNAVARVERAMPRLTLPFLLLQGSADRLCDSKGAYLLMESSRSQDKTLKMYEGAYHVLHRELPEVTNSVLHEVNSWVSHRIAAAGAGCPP", "test": "Inhibition of TAMRA-FP-labeled MAGL in mouse brain membrane at 10 uM after 1 hr by fluorescent gel scanning assay", "type": "cell membranes"}, "[8]": {"molecular_target": "T2, Fatty-acid amide hydrolase 1 (Homo sapiens)", "test": "Inhibition of human recombinant FAAH overexpressed in African green monkey COS7 cells using [3H]-anandamide as substrate at 3 to 30 uM preincubated for 10 to 60 mins by liquid scintillation counting analysis", "type": "cell-based", "conditions": "COS-7"}},
  "note": "Active and inactive are the calls of the source. No cut-off for these calls is given here.",
  "data": [
    {"smiles": "COc1nn([C@@H](C)c2ccc(CC(C)C)cc2)c(=O)o1", "values": [
      {"measurement": "inhibition", "setting": "[1]", "result": "inactive"},
      {"measurement": "inhibition", "setting": "[2]", "result": "Active"},
      {"measurement": "inhibition", "setting": "[3]", "result": "Active"},
      {"measurement": "inhibition", "setting": "[4]", "result": "Dose-dependent effect"},
      {"measurement": "Selectivity ratio", "setting": "[5]", "result": "> 900"},
      {"measurement": "inhibition", "setting": "[6]", "result": 20, "unit": "%"},
      {"measurement": "inhibition", "setting": "[7]", "result": "inactive"},
      {"measurement": "inhibition", "setting": "[8]", "result": "Active"}
    ]}
  ]
}
